# Laboratory results: ChEMBL document CHEMBL1201862, “PubChem BioAssay data set” (2004)
#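 Tested at 5 concentrations; 48 h exposure; 96-well plates; endpoints linearly interpolated, else capped at highest concentration. The concentration for 50% growth inhibition is given as GI50.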 Activity calls are given as the source filed them. Rule as the data show it: active = GI50 up to about 1.1 µM and inactive = higher.
# Tests used:
# Experiment in all cases: NCI tumour cell line growth inhibition, 48 h
# SK-MEL-2 = tested on: SK-MEL-2
# UO-31 = tested on: UO-31
# SN12C = tested on: SN12C
# EKVX = tested on: EKVX
# UACC-62 = tested on: UACC-62
# LOX IMVI = tested on: LOX IMVI
# ACHN = tested on: ACHN
# TK-10 = tested on: TK-10
# T47D = tested on: T47D
# SK-MEL-5 = tested on: SK-MEL-5
# CCRF-CEM = tested on: CCRF-CEM
# MDA-MB-435 = tested on: MDA-MB-435
# MCF7 = tested on: MCF7
# SF-295 = tested on: SF-295
# OVCAR-4 = tested on: OVCAR-4
# M14 = tested on: M14
# NCI-H23 = tested on: NCI-H23
# A498 = tested on: A498
# HOP-92 = tested on: HOP-92
# SNB-75 = tested on: SNB-75
SMILES,GI50 (SK-MEL-2),GI50 (UO-31),GI50 (SN12C),GI50 (EKVX),GI50 (UACC-62),GI50 (LOX IMVI),GI50 (ACHN),GI50 (TK-10),GI50 (T47D),GI50 (SK-MEL-5),GI50 (CCRF-CEM),GI50 (MDA-MB-435),GI50 (MCF7),GI50 (SF-295),GI50 (OVCAR-4),GI50 (M14),GI50 (NCI-H23),GI50 (A498),GI50 (HOP-92),GI50 (SNB-75)
Cc1csc2n(C)c(=O)c3ccccc3[n+]12,> 100 µM (inactive),> 100 µM (inactive),> 100 µM (inactive),> 100 µM (inactive),> 100 µM (inactive),> 100 µM (inactive),> 100 µM (inactive),> 100 µM (inactive),> 100 µM (inactive),98.4 µM (inactive),> 100 µM (inactive),> 100 µM (inactive),> 100 µM (inactive),> 100 µM (inactive),> 100 µM (inactive),> 100 µM (inactive),> 100 µM (inactive),,,
COc1ccc(CC2NC(=O)/C=C/CC(C(C)C3OC3c3ccccc3)OC(=O)C(CC(C)C)OC(=O)C(C)CNC2=O)cc1Cl (centres undefined),0.001 µM (active),,2.38e-05 µM (active),,1.1e-05 µM (active),< 1e-05 µM (active),2.81e-05 µM (active),,,< 1e-05 µM (active),< 1e-05 µM (active),< 1e-05 µM (active),1.34e-05 µM (active),1.34e-05 µM (active),,1.04e-05 µM (active),2.07e-05 µM (active),< 1e-05 µM (active),0.000205 µM (active),2.83e-05 µM (active)
Nc1ccccc1C(=O)CCC1C(=O)NC(=S)NC1=O,> 100 µM (inactive),> 100 µM (inactive),,> 100 µM (inactive),> 100 µM (inactive),> 100 µM (inactive),> 100 µM (inactive),> 100 µM (inactive),> 100 µM (inactive),> 100 µM (inactive),> 100 µM (inactive),,> 100 µM (inactive),> 100 µM (inactive),> 100 µM (inactive),> 100 µM (inactive),> 100 µM (inactive),> 100 µM (inactive),> 91.4 µM (inactive),43.8 µM (inactive)
COc1ccc(CSc2ccccc2Cn2cccc2)cc1OC,,39.4 µM (inactive),34.8 µM (inactive),82.8 µM (inactive),71.6 µM (inactive),73.5 µM (inactive),10.4 µM (inactive),> 100 µM (inactive),35.2 µM (inactive),22.4 µM (inactive),50.5 µM (inactive),> 100 µM (inactive),36.2 µM (inactive),25.5 µM (inactive),39.8 µM (inactive),,10.9 µM (inactive),27.6 µM (inactive),,> 100 µM (inactive)
CCC(C=O)P1(=O)OC(C)(C)CN1C(C)(C)C (centres undefined),34.9 µM (inactive),> 100 µM (inactive),,91.4 µM (inactive),> 100 µM (inactive),> 100 µM (inactive),> 100 µM (inactive),93.3 µM (inactive),31.6 µM (inactive),> 100 µM (inactive),,99.5 µM (inactive),84.3 µM (inactive),32.5 µM (inactive),> 100 µM (inactive),> 100 µM (inactive),> 100 µM (inactive),81.8 µM (inactive),,
CCCC(=O)NC(Nc1ccc(S(=O)(=O)Nc2ccc(OC)nn2)cc1)(C(F)(F)F)C(F)(F)F,> 100 µM (inactive),> 100 µM (inactive),> 100 µM (inactive),> 100 µM (inactive),> 100 µM (inactive),> 100 µM (inactive),> 100 µM (inactive),> 100 µM (inactive),> 100 µM (inactive),> 100 µM (inactive),> 100 µM (inactive),> 100 µM (inactive),,> 100 µM (inactive),> 100 µM (inactive),> 100 µM (inactive),> 100 µM (inactive),87.9 µM (inactive),> 100 µM (inactive),> 100 µM (inactive)
c1ccc(/N=c2/[nH]c3ccccc3s/c2=N/c2ccccc2)cc1,77.1 µM (inactive),> 100 µM (inactive),> 100 µM (inactive),> 100 µM (inactive),> 100 µM (inactive),> 100 µM (inactive),> 100 µM (inactive),> 100 µM (inactive),93.8 µM (inactive),> 100 µM (inactive),> 100 µM (inactive),> 100 µM (inactive),,> 100 µM (inactive),> 100 µM (inactive),,> 100 µM (inactive),> 100 µM (inactive),> 100 µM (inactive),> 100 µM (inactive)
COc1cc(C2CC(C)(Nc3ccccc3)Oc3cc4c(cc32)OCO4)cc(OC)c1OC (centres undefined),0.303 µM (active),1.2 µM (inactive),0.247 µM (active),1.82 µM (inactive),0.203 µM (active),0.256 µM (active),0.499 µM (active),1.88 µM (inactive),,0.153 µM (active),0.124 µM (active),0.0172 µM (active),0.135 µM (active),0.199 µM (active),1.84 µM (inactive),0.223 µM (active),0.301 µM (active),2.97 µM (inactive),15.8 µM (inactive),3.49 µM (inactive)
CCOC(=O)C1=C(C)N(Cc2ccccc2)C(C)=C(C(=O)OCC)C1c1ccccc1O,20 µM (inactive),32.1 µM (inactive),28.4 µM (inactive),24.7 µM (inactive),18.1 µM (inactive),17.9 µM (inactive),28.1 µM (inactive),47.5 µM (inactive),,16.1 µM (inactive),27 µM (inactive),,,33.1 µM (inactive),34.8 µM (inactive),33.7 µM (inactive),24 µM (inactive),33.7 µM (inactive),13.7 µM (inactive),27.5 µM (inactive)
O=C(O)CCCNc1ncc2c(n1)-c1ccccc1OC2,> 100 µM (inactive),68.2 µM (inactive),> 100 µM (inactive),> 100 µM (inactive),> 100 µM (inactive),> 100 µM (inactive),> 100 µM (inactive),> 100 µM (inactive),,> 100 µM (inactive),> 100 µM (inactive),> 100 µM (inactive),> 100 µM (inactive),> 100 µM (inactive),> 100 µM (inactive),> 100 µM (inactive),77.4 µM (inactive),,> 100 µM (inactive),33.8 µM (inactive)
N#CC(c1nc2ccccc2s1)c1ncnc(Cl)c1[N+](=O)[O-] (centres undefined),,27.9 µM (inactive),18.2 µM (inactive),23.2 µM (inactive),,17.3 µM (inactive),37.6 µM (inactive),34.3 µM (inactive),29.1 µM (inactive),15.8 µM (inactive),0.361 µM (active),29.2 µM (inactive),,> 100 µM (inactive),27.7 µM (inactive),17.5 µM (inactive),16.5 µM (inactive),> 100 µM (inactive),17.3 µM (inactive),22.9 µM (inactive)
CN(C)CCNC(=O)c1cccc2nc3ccc4ccccc4c3nc12,0.177 µM (active),0.0685 µM (active),0.0478 µM (active),0.126 µM (active),0.126 µM (active),0.0726 µM (active),0.0658 µM (active),0.139 µM (active),,0.105 µM (active),0.0673 µM (active),,,0.0989 µM (active),0.114 µM (active),0.2 µM (active),0.0942 µM (active),0.0832 µM (active),0.0957 µM (active),0.12 µM (active)
Cc1nn(C(=O)c2ccccc2O)c2c1C(c1ccccc1)SC(=N)N2 (centres undefined),3.58 µM (inactive),,2.25 µM (inactive),> 10 µM (inactive),0.44 µM (active),3.1 µM (inactive),0.419 µM (active),0.897 µM (active),5.43 µM (inactive),3.19 µM (inactive),2.36 µM (inactive),0.416 µM (active),2.81 µM (inactive),3.74 µM (inactive),1.49 µM (inactive),1.69 µM (inactive),0.836 µM (active),,,0.311 µM (active)
CSc1ccc2c(cc1=O)C(NC(=O)c1cc(O)c(OC(=O)O)c(O)c1)CCc1cc(O)c(O)c(O)c1-2 (centres undefined),> 89.9 µM (inactive),15.3 µM (inactive),13.3 µM (inactive),20 µM (inactive),14.7 µM (inactive),12.9 µM (inactive),33.8 µM (inactive),> 89.9 µM (inactive),,15.7 µM (inactive),11.9 µM (inactive),,,17.4 µM (inactive),20.2 µM (inactive),12.1 µM (inactive),19.2 µM (inactive),36.1 µM (inactive),22.8 µM (inactive),32.7 µM (inactive)
COc1cc(C2c3cc4c(cc3[C@@H](Nc3ccc5c(c3)OCCO5)C3COC(=O)[C@H]23)OCO4)cc(OC)c1O (some centres undefined),2.19 µM (inactive),0.499 µM (active),0.627 µM (active),2.87 µM (inactive),0.257 µM (active),0.587 µM (active),0.585 µM (active),1.52 µM (inactive),,0.448 µM (active),0.138 µM (active),,0.802 µM (active),0.301 µM (active),5.97 µM (inactive),0.327 µM (active),0.207 µM (active),0.19 µM (active),0.478 µM (active),0.581 µM (active)
CC#Cc1ccc(-c2ccccc2)s1,> 100 µM (inactive),> 100 µM (inactive),> 100 µM (inactive),> 100 µM (inactive),> 100 µM (inactive),> 100 µM (inactive),> 100 µM (inactive),> 100 µM (inactive),,> 100 µM (inactive),> 100 µM (inactive),> 100 µM (inactive),> 100 µM (inactive),> 100 µM (inactive),> 100 µM (inactive),> 100 µM (inactive),68.9 µM (inactive),> 100 µM (inactive),> 100 µM (inactive),> 100 µM (inactive)
